Data as given in US20240174673A1, “Spirocycle Containing Pyridine Compounds” (Protego Biopharma, Inc., priority 2022, published 2024).

Tested on: Recombinant amyloidogenic full length light chain protein WIL-FL T46L
Assay: Differential Scanning Fluorimetry (thermal shift) assay
Format: binding
Settings: WIL-FL T46L protein and compound incubated at RT for 30 min before dye; compared to vehicle
Description: Differential Scanning Fluorimetry Assay
The stabilization effects the compounds have on the immunoglobulin light chain protein was quantitively measured using a thermal shift assay. Recombinant amyloidogenic full length light chain protein WIL-FL T46L was produced in E. coli, purified, and used in the assay. The Thermal Shift Protein Stability Kit from Biotium was used and the assay was done in 96-well Plates following the manufacturer's instructions. The protein and compounds were incubated at RT for 30 min before adding the dye and subjected to the thermal shift assay. The thermal stability (Tm) of each sample was then determined using standard curve fitting methods and compared to vehicle. Data are expressed as temperature shift: [Tm]compound−[Tm]vehicle.
The compounds provided herein induce shifts in the ranges below: • 0-0.5° C.=* • >0.5-1° C.=** • >1-1.5° C.=*** • >1.5-2.5° C.=**** • >2.5° C.=*****

| SMILES | DSF temperature shift: [Tm]compound−[Tm]vehicle |
| --- | --- |
| Cc1cc(N2CC[C@](C)(c3ccccc3)C2)cnc1C(=O)NCCN1CC2(CCN(c3nccn4ccnc34)CC2)NC1=O (stereo in doubt) [Compound 5, N-(2-(8-(imidazo[1,2-a]pyrazin-8-yl)-2-oxo-1,3,8-triazaspiro[4.5]decan-3-yl)ethyl)-3-methyl-5-(3-methyl-3-phenylpyrrolidin-1-yl)picolinamide] | ***** (>2.5° C.=*****) |
| C[C@H](COc1cnc(C(=O)NCCN2CC3(CCN(c4nccn5ccnc45)CC3)NC2=O)c(Cl)c1)c1ccccc1 (stereo in doubt) [Compound 13, 3-chloro-N-(2-(8-(imidazo[1,2-a]pyrazin-8-yl)-2-oxo-1,3,8-triazaspiro[4.5]decan-3-yl)ethyl)-5-(2-phenylpropoxy)picolinamide] | ***** (>2.5° C.=*****) |
| Cc1cc(N2CCC(C)(c3ccccc3)C2)cnc1C(=O)NCCN1CC2(CCNCC2)NC1=O (stereo not shown) [Compound 2, 3-methyl-5-(3-methyl-3-phenylpyrrolidin-1-yl)-N-(2-(2-oxo-1,3,8-triazaspiro[4.5]decan-3-yl)ethyl)picolinamide] | **** (>1.5-2.5° C.=****) |
| Cc1cc(N2CC[C@](C)(c3ccccc3)C2)cnc1C(=O)NCCN1CC2(CCN(c3nccn4cncc34)CC2)NC1=O [Compound 3] | ***** (>2.5° C.=*****) |
| Cc1cc(N2CC[C@](C)(c3ccccc3)C2)cnc1C(=O)NCCN1CC2(CCN(c3nccn4cnnc34)CC2)NC1=O [Compound 4] | ***** (>2.5° C.=*****) |
| Cc1cc(N2CC[C@@](C)(c3ccccc3)C2)cnc1C(=O)NCCN1CC2(CCN(c3nccn4ccnc34)CC2)NC1=O [Compound 6] | **** (>1.5-2.5° C.=****) |
| C[C@]1(c2ccccc2)CCN(c2cnc(C(=O)NCCN3CC4(CCN(c5nccn6ccnc56)CC4)NC3=O)c(Cl)c2)C1 [Compound 7, 3-chloro-N-(2-(8-(imidazo[1,2-a]pyrazin-8-yl)-2-oxo-1,3,8-triazaspiro[4.5]decan-3-yl)ethyl)-5-(3-methyl-3-phenylpyrrolidin-1-yl)picolinamide] | ***** (>2.5° C.=*****) |
| C[C@]1(c2ccccc2)CCN(c2cnc(C(=O)NCCN3CC4(CCN(c5nccn6ccnc56)CC4)NC3=O)c(C(F)(F)F)c2)C1 [Compound 8] | **** (>1.5-2.5° C.=****) |
| C[C@]1(c2ccccc2)CCN(c2cnc(C(=O)NCCN3CC4(CCN(c5nccn6cnnc56)CC4)NC3=O)c(Cl)c2)C1 [Compound 9] | ***** (>2.5° C.=*****) |
| CC[C@]1(c2ccccc2)CCN(c2cnc(C(=O)NCCN3CC4(CCN(c5nccn6ccnc56)CC4)NC3=O)c(Cl)c2)C1 [Compound 10] | ***** (>2.5° C.=*****) |
| CC[C@]1(c2ccccc2)CCN(c2cnc(C(=O)NCCN3CC4(CCN(c5nccn6cnnc56)CC4)NC3=O)c(Cl)c2)C1 [Compound 11] | ***** (>2.5° C.=*****) |
| C[C@H](COc1cnc(C(=O)NCCN2CC3(CCNCC3)NC2=O)c(Cl)c1)c1ccccc1 [Compound 12] | *** (>1-1.5° C.=***) |
| Cc1cc(N2CCC(C)(c3ccccc3)C2)cnc1C(=O)NCCN1CC2(CCN(c3nccn4ccnc34)CC2)NC1=O (stereo not shown) [Compound 14] | ***** (>2.5° C.=*****) |
| CCOC(=O)c1ccc(N2CCC3(CC2)CN(CCNC(=O)c2ncc(OC[C@@H](C)c4ccccc4)cc2Cl)C(=O)N3)cn1 [Compound 15] | *** (>1-1.5° C.=***) |
| CC[C@]1(c2ccccc2)CCN(c2cnc(C(=O)NCCN3CC4(CCN(c5ccnc(C(=O)NC)c5)CC4)NC3=O)c(Cl)c2)C1 [Compound 16] | * (0-0.5° C.=*) |
| CC[C@]1(c2ccccc2)CCN(c2cnc(C(=O)NCCN3CC4(CCN(c5cncnc5)CC4)NC3=O)c(Cl)c2)C1 [Compound 17] | ** (>0.5-1° C.=**) |
| COC(=O)c1ncc(N2CCC3(CC2)CN(CCNC(=O)c2ncc(OC[C@@H](C)c4ccccc4)cc2Cl)C(=O)N3)cc1F [Compound 18] | ** (>0.5-1° C.=**) |
| COC(=O)c1ccc(N2CCC3(CC2)CN(CCNC(=O)c2ncc(OC[C@@H](C)c4ccccc4)cc2Cl)C(=O)N3)nn1 [Compound 19] | **** (>1.5-2.5° C.=****) |
| C[C@H](COc1cnc(C(=O)NCCN2CC3(CCN(c4cnc(C(=O)O)c(F)c4)CC3)NC2=O)c(Cl)c1)c1ccccc1 [Compound 20] | ** (>0.5-1° C.=**) |
| C[C@H](COc1cnc(C(=O)NCCN2CC3(CCN(c4ccc(C(=O)O)nn4)CC3)NC2=O)c(Cl)c1)c1ccccc1 [Compound 21] | ** (>0.5-1° C.=**) |
| C[C@H](COc1cnc(C(=O)NCCN2CC3(CCN(c4ccc(C(=O)O)nc4)CC3)NC2=O)c(Cl)c1)c1ccccc1 [Compound 22] | *** (>1-1.5° C.=***) |
| C[C@H](COc1cnc(C(=O)NCCN2CC3(CCN(c4nccn5cncc45)CC3)NC2=O)c(Cl)c1)c1ccccc1 [Compound 23] | ***** (>2.5° C.=*****) |
| C[C@H](COc1cnc(C(=O)NCCN2CC3(CCN(c4cnccn4)CC3)NC2=O)c(Cl)c1)c1ccccc1 [Compound 24] | **** (>1.5-2.5° C.=****) |
| CC(=O)N1CCC2(CC1)CN(CCNC(=O)c1ncc(N3CC[C@](C)(c4ccccc4)C3)cc1C)C(=O)N2 [Compound 25] | **** (>1.5-2.5° C.=****) |
| Cc1cc(N2CCC(C)(c3ccccc3)C2)cnc1CCN1C(=O)NC2(CCN(c3ncccn3)CC2)C1=O (stereo not shown) [Compound 26] | * (0-0.5° C.=*) |
